Experimental data from patent US8530462B2, “Indole modulators of S1P receptors” (Allergan, Inc., priority 2010, dated 2013).

Target: T1, human S1P1 receptor (Homo sapiens, UniProt P21453)
T1 construct: expressed in transfected cells; membranes were used
Assay: GTP γ35S binding assay, S1P1 receptor activity
Type: biochemical
Conditions: for % stimulation: S1P1 receptor, agonist-induced stimulation; for EC50: membranes of cells stably expressing the S1P1 receptor, test compounds 0.08 to 5,000 nM
Experimental: The S1P1 activity of the compounds according to the invention, were tested using the GTP γ^35S binding assay. The compounds were assessed for their ability to activate or block activation of the human S1P1 receptor in cells stably expressing the S1P1 receptor.
GTP γ^35S binding was measured in the medium containing (mM) HEPES 25, pH 7.4, MgCl2 10, NaCl 100, dithitothreitol 0.5, digitonin 0.003%, 0.2 nM GTP γ^35S, and 5 μg membrane protein in a volume of 150 μl. Test compounds were included in the concentration range from 0.08 to 5,000 nM unless indicated otherwise. Membranes were incubated with 100 μM 5′-adenylylimmidodiphosphate for 30 min, and subsequently with 10 μM GDP for 10 min on ice. Drug solutions and membrane were mixed, and then reactions were initiated by adding GTP γ^35S and continued for 30 min at 25° C. Reaction mixtures were filtered over Whatman GF/B filters under vacuum, and washed three times with 3 mL of ice-cold buffer (HEPES 25, pH7.4, MgCl2 10 and NaCl 100). Filters were dried and mixed with scintillant, and counted for ^35S activity using a β-counter. Agonist-induced GTP γ^35S binding was obtained by subtracting that in the absence of agonist. Binding data were analyzed using a non-linear regression method. In case of antagonist assay, the reaction mixture contained 10 nM S1P in the presence of test antagonist at concentrations ranging from 0.08 to 5000 nM.
Activity potency: S1P1 receptor from GTP γ^35S: nM, (EC50), % stimulation, […]

T1 sequence (P21453 whole entry): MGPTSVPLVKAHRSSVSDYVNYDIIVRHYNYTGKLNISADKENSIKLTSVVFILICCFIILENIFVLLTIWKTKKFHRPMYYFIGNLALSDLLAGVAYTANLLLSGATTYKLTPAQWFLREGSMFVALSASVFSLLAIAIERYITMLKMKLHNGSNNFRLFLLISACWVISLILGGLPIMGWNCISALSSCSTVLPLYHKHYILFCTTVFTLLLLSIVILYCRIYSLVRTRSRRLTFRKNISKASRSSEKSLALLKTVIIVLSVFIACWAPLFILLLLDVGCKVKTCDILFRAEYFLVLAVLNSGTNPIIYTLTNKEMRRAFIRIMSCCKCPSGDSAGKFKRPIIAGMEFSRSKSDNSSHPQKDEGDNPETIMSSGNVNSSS

Row | Compound | % stimulation | EC50
1 | COc1ccc2c(c1)c(-c1nc(-c3ccc(CN4CC(C(=O)O)C4)cc3)no1)c(C)n2Cc1ccc(C)c(C)c1 [Compound 3, 1-(4-{5-[1-(3,4-dimethylbenzyl)-5-methoxy-2-methyl-1H-indol-3-yl]-1,2,4-oxadiazol-3-yl}benzyl)azetidine-3-carboxylic acid] | 82% | 1560 nM
2 | c1ccc(Cn2cc(-c3nc(-c4ccc(Cn5ccnc5)cc4)no3)c3ccccc32)cc1 [Compound 6, 1-benzyl-3-{3-[4-(1H-imidazol-1-ylmethyl)phenyl]-1,2,4-oxadiazol-5-yl}-1H-indole] | 86% | 1160 nM
3 | O=C(O)CCNCc1ccc(-c2noc(-c3cn(Cc4ccccc4)c4ccccc34)n2)cc1 [Compound 12, 3-({4-[5-(1-benzyl-1H-indol-3-yl)-1,2,4-oxadiazol-3-yl]benzyl}amino)propanoic acid] |  | 394 nM
4 | Cc1ccc(Cn2cc(-c3nc(-c4ccc(CN5CC(C(=O)O)C5)cc4)no3)c3cc(F)ccc32)cc1C [Compound 2, 1-(4-{5-[1-(3,4-dimethylbenzyl)-5-fluoro-1H-indol-3-yl]-1,2,4-oxadiazol-3-yl}benzyl)azetidine-3-carboxylic acid] | 94% | 737 nM
5 | O=C(O)C1CN(Cc2ccc(-c3noc(-c4cn(Cc5ccccc5)c5ccc(F)cc45)n3)cc2)C1 [Compound 5, 1-{4-[5-(1-benzyl-5-fluoro-1H-indol-3-yl)-1,2,4-oxadiazol-3-yl]benzyl}azetidine-3-carboxylic acid] | 91% | 189 nM
6 | O=C(O)CCCCNCc1ccc(-c2noc(-c3cn(Cc4ccccc4)c4ccccc34)n2)cc1 [Compound 15, 5-({4-[5-(1-benzyl-1H-indol-3-yl)-1,2,4-oxadiazol-3-yl]benzyl}amino)pentanoic acid] | 108% | 1010 nM
7 | O=C(O)CCNCc1ccc(-c2noc(-c3cn(Cc4ccccc4)c4ccc(F)cc34)n2)cc1 [Compound 17, 3-({4-[5-(1-benzyl-5-fluoro-1H-indol-3-yl)-1,2,4-oxadiazol-3-yl]benzyl}amino)propanoic acid] | 100% | 129 nM
8 | Cc1ccc(Cn2cc(-c3nc(-c4ccc(CNCCC(=O)O)cc4)no3)c3cc(F)ccc32)cc1C [Compound 14, 3-[(4-{5-[1-(3,4-dimethylbenzyl)-5-fluoro-1H-indol-3-yl]-1,2,4-oxadiazol-3-yl}benzyl)amino]propanoic acid] | 93% | 1490 nM
9 | O=C(O)C1CN(Cc2ccc(-c3noc(-c4cn(Cc5ccccc5)c5ccccc45)n3)cc2)C1 [Compound 8, 1-{4-[5-(1-benzyl-1H-indol-3-yl)-1,2,4-oxadiazol-3-yl]benzyl}azetidine-3-carboxylic acid] | 66% | 494 nM
10 | Cc1ccc(Cn2cc(-c3nc(-c4ccc(CNCCC(=O)O)cc4)no3)c3ccccc32)cc1C [Compound 16, 3-[(4-{5-[1-(3,4-dimethylbenzyl)-1H-indol-3-yl]-1,2,4-oxadiazol-3-yl}benzyl)amino]propanoic acid] | 81% | 1440 nM
11 | CNc1ncccc1-c1noc(-c2cn(Cc3ccc(C)c(C)c3)c3ccc(F)cc23)n1 [Compound 11, 3-{5-[1-(3,4-dimethylbenzyl)-5-fluoro-1H-indol-3-yl]-1,2,4-oxadiazol-3-yl}-N-methylpyridin-2-amine] |  | 569 nM
12 | CNc1ncccc1-c1noc(-c2cn(Cc3ccccc3)c3ccccc23)n1 [Compound 10, 3-[5-(1-benzyl-1H-indol-3-yl)-1,2,4-oxadiazol-3-yl]-N-methylpyridin-2-amine] | 88% | 703 nM
13 | Cc1ccc(Cn2cc(-c3nc(-c4ccc(CN5CC(C(=O)O)C5)cc4)no3)c3ccccc32)cc1C [Compound 4, 1-(4-{5-[1-(3,4-dimethylbenzyl)-1H-indol-3-yl]-1,2,4-oxadiazol-3-yl}benzyl)azetidine-3-carboxylic acid] | 92% | 1020 nM
14 | Cc1ccc2c(c1)c(-c1nc(-c3ccc(CN4CC(C(=O)O)C4)cc3)no1)cn2Cc1ccc(C)c(C)c1 [Compound 1, 1-(4-{5-[1-(3,4-dimethylbenzyl)-5-methyl-1H-indol-3-yl]-1,2,4-oxadiazol-3-yl}benzyl)azetidine-3-carboxylic acid] | 92% | 426 nM
15 | Cc1ccc(Cn2c(C)c(-c3nc(-c4ccc(CN5CC(C(=O)O)C5)cc4)no3)c3cc(F)ccc32)cc1C [Compound 9, 1-(4-{5-[1-(3,4-dimethylbenzyl)-5-fluoro-2-methyl-1H-indol-3-yl]-1,2,4-oxadiazol-3-yl}benzyl)azetidine-3-carboxylic acid] | 85% | 1000 nM
16 | Cc1ccc2c(c1)c(-c1nc(-c3ccc(CNCCC(=O)O)cc3)no1)cn2Cc1ccc(C)c(C)c1 [Compound 13, 3-[(4-{5-[1-(3,4-dimethylbenzyl)-5-methyl-1H-indol-3-yl]-1,2,4-oxadiazol-3-yl}benzyl)amino]propanoic acid] | 82% | 351 nM
